Measured values published in ChEMBL document CHEMBL1795286, “A concise synthesis and antimicrobial activities of 3-polyamino-23,24-bisnorcholanes as steroid-polyamine conjugates” (2011).

Assays:
Staphylococcus aureus [1] = experiment: Antimicrobial activity against Staphylococcus aureus ATCC 6538P after 18 hrs by twofold agar dilution method; format: functional
Staphylococcus aureus [2] = experiment: Antimicrobial activity against Staphylococcus aureus ATCC 25923 after 18 hrs by twofold agar dilution method; format: functional; conditions: ATCC 25923, 18 h
Staphylococcus aureus [3] = experiment: Antimicrobial activity against Staphylococcus aureus giorgio after 18 hrs by twofold agar dilution method; format: functional
Staphylococcus aureus [4] = experiment: Antimicrobial activity against Staphylococcus aureus 77 after 18 hrs by twofold agar dilution method; format: functional; conditions: Staphylococcus aureus, 77, 18 h
Staphylococcus aureus [5] = experiment: Antimicrobial activity against Staphylococcus aureus 241 after 18 hrs by twofold agar dilution method; format: functional; conditions: Staphylococcus aureus, 241, 18 h; read-out: MIC
[6] = tested on: Staphylococcus epidermidis; experiment: Antimicrobial activity against Staphylococcus epidermidis 887E after 18 hrs by twofold agar dilution method; format: functional; conditions: read-out: MIC
Enterococcus faecalis = experiment: Antimicrobial activity against Enterococcus faecalis ATCC 29212 after 18 hrs by twofold agar dilution method; format: functional; conditions: ATCC 29212, 18 h
Escherichia coli [7] = experiment: Antimicrobial activity against Escherichia coli ATCC 25922 after 18 hrs by twofold agar dilution method; format: functional; conditions: ATCC 25922, 18 h
Escherichia coli [8] = experiment: Antimicrobial activity against Escherichia coli ATCC 10536 after 18 hrs by twofold agar dilution method; format: functional; conditions: ATCC 10536, 18 h
Escherichia coli [9] = experiment: Antimicrobial activity against Escherichia coli 3190Y after 18 hrs by twofold agar dilution method; format: functional
Escherichia coli [10] = experiment: Antimicrobial activity against Escherichia coli 851E after 18 hrs by twofold agar dilution method; format: functional
Salmonella typhimurium [11] = experiment: Antimicrobial activity against Salmonella Typhimurium ATCC 14028 after 18 hrs by two-fold agar dilution method; format: functional, Salmonella enterica subsp. enterica serovar Typhimurium; conditions: Salmonella enterica, ATCC 14028, 18 h
Salmonella typhimurium [12] = experiment: Antimicrobial activity against Salmonella typhimurium ATCC 13311 after 18 hrs by twofold agar dilution method; format: functional, Salmonella enterica subsp. enterica serovar Typhimurium; conditions: Salmonella enterica, ATCC 13311, 18 h
Klebsiella pneumoniae = experiment: Antimicrobial activity against Klebsiella pneumoniae 2011E after 18 hrs by twofold agar dilution method; format: functional
Moraxella catarrhalis [13] = experiment: Antimicrobial activity against Moraxella catarrhalis 25240 after 18 hrs by twofold agar dilution method; format: functional; conditions: Moraxella catarrhalis, 25240, 18 h
Moraxella catarrhalis [14] = experiment: Antimicrobial activity against Moraxella catarrhalis C2431 after 18 hrs by twofold agar dilution method; format: functional; conditions: C2431, 18 h
Proteus vulgaris = experiment: Antimicrobial activity against Proteus vulgaris 6059 after 18 hrs by twofold agar dilution method; format: functional; conditions: Proteus vulgaris, 6059, 18 h
Morganella morganii = experiment: Antimicrobial activity against Morganella morganii 1375E after 18 hrs by twofold agar dilution method; format: functional
Citrobacter freundii = experiment: Antimicrobial activity against Citrobacter freundii 8090 after 18 hrs by twofold agar dilution method; format: functional; conditions: Citrobacter freundii, 8090, 18 h
Citrobacter koseri = experiment: Antimicrobial activity against Citrobacter diversus 2046 after 18 hrs by twofold agar dilution method; format: functional; conditions: Citrobacter koseri, 2046, 18 h
Enterobacter cloacae [15] = experiment: Antimicrobial activity against Enterobacter cloacae ATCC 27508 after 18 hrs by twofold agar dilution method; format: functional; conditions: ATCC 27508, 18 h
Enterobacter cloacae [16] = experiment: Antimicrobial activity against Enterobacter cloacae P99 after 18 hrs by twofold agar dilution method; format: functional; conditions: P99, 18 h
Serratia marcescens [17] = experiment: Antimicrobial activity against Serratia marcescens ATCC 27117 after 18 hrs by twofold agar dilution method; format: functional; conditions: ATCC 27117, 18 h
Serratia marcescens [18] = experiment: Antimicrobial activity against Serratia marcescens 1826E after 18 hrs by twofold agar dilution method; format: functional
[19] = tested on: Acinetobacter calcoaceticus; experiment: Antimicrobial activity against Acinetobacter calcoaceticus ATCC 15473 after 18 hrs by twofold agar dilution method; format: functional; conditions: ATCC 15473, 18 h
Micrococcus luteus = experiment: Antimicrobial activity against Micrococcus luteus ATCC 9341 after 18 hrs by twofold agar dilution method; format: functional; conditions: ATCC 9341, 18 h, read-out: MIC
Bacillus cereus = experiment: Antimicrobial activity against Bacillus cereus ATCC 27348 after 18 hrs by twofold agar dilution method; format: functional; conditions: ATCC 27348, 18 h
Bacillus subtilis = experiment: Antimicrobial activity against Bacillus subtilis ATCC 6633 after 18 hrs by twofold agar dilution method; format: functional; conditions: ATCC 6633, 18 h
Bacillus licheniformis = experiment: Antimicrobial activity against Bacillus licheniformis EMR after 18 hrs by twofold agar dilution method; format: functional; conditions: read-out: MIC
Pseudomonas aeruginosa = experiment: Antimicrobial activity against Pseudomonas aeruginosa 6065Y after 18 hrs by twofold agar dilution method; format: functional
Klebsiella aerogenes = experiment: Antimicrobial activity against Klebsiella aerogenes harboring beta-lactamase SHV-1 1976E mutant after 18 hrs by twofold agar dilution method; format: functional

| Compound | MIC (Staphylococcus aureus [1]) | MIC (Staphylococcus aureus [3]) | MIC (Staphylococcus aureus [5]) | MIC [6] | MIC (Escherichia coli [10]) | MIC (Salmonella typhimurium [11]) | MIC (Salmonella typhimurium [12]) | MIC (Klebsiella pneumoniae) | MIC (Proteus vulgaris) | MIC (Morganella morganii) | MIC (Citrobacter freundii) | MIC (Citrobacter koseri) | MIC (Enterobacter cloacae [15]) | MIC (Enterobacter cloacae [16]) | MIC (Serratia marcescens [17]) | MIC (Serratia marcescens [18]) | MIC [19] | MIC (Micrococcus luteus) | MIC (Bacillus subtilis) | MIC (Bacillus licheniformis) | other results |
| --- | --- | --- | --- | --- | --- | --- | --- | --- | --- | --- | --- | --- | --- | --- | --- | --- | --- | --- | --- | --- | --- |
| C[C@H](CO)[C@H]1CC[C@H]2[C@@H]3CC[C@@H]4C[C@H](NCCCNCCCCNCCCN)CC[C@]4(C)[C@H]3CC[C@]12C.Cl.Cl.Cl.Cl | 8 µg/mL | 32 µg/mL | 8 µg/mL | 16 µg/mL | > 32 µg/mL | > 32 µg/mL | > 32 µg/mL | > 32 µg/mL | > 32 µg/mL | > 32 µg/mL | > 32 µg/mL | > 32 µg/mL | > 32 µg/mL | > 32 µg/mL | > 32 µg/mL | > 32 µg/mL | > 32 µg/mL | 8 µg/mL | 8 µg/mL | < 32 µg/mL | MIC (Staphylococcus aureus [2]; read-out: MIC): 32 µg/mL; MIC (Staphylococcus aureus [4]; read-out: MIC): 8 µg/mL; MIC (Enterococcus faecalis): > 32 µg/mL; MIC (Escherichia coli [7]): > 32 µg/mL; MIC (Escherichia coli [8]): > 32 µg/mL; MIC (Escherichia coli [9]): > 32 µg/mL; MIC (Moraxella catarrhalis [13]; read-out: MIC): < 32 µg/mL; MIC (Moraxella catarrhalis [14]; read-out: MIC): < 32 µg/mL; MIC (Bacillus cereus): > 32 µg/mL; MIC (Pseudomonas aeruginosa): > 32 µg/mL; MIC (Klebsiella aerogenes): > 32 µg/mL |
| C[C@H](CO)[C@H]1CC[C@H]2[C@@H]3[C@H](F)C[C@H]4C[C@@H](NCCCNCCCCN)CC[C@]4(C)[C@H]3CC[C@]12C.Cl.Cl.Cl | 8 µg/mL | 8 µg/mL | 8 µg/mL | 16 µg/mL | > 32 µg/mL | > 32 µg/mL | > 32 µg/mL | > 32 µg/mL | > 32 µg/mL | > 32 µg/mL | > 32 µg/mL | > 32 µg/mL | > 32 µg/mL | > 32 µg/mL | > 32 µg/mL | > 32 µg/mL | > 32 µg/mL | 16 µg/mL | 16 µg/mL | < 32 µg/mL | MIC (Staphylococcus aureus [2]): > 32 µg/mL; MIC (Staphylococcus aureus [4]; read-out: MIC): 8 µg/mL; MIC (Enterococcus faecalis; read-out: MIC): < 32 µg/mL; MIC (Escherichia coli [7]): > 32 µg/mL; MIC (Escherichia coli [8]): > 32 µg/mL; MIC (Escherichia coli [9]; read-out: MIC): < 32 µg/mL; MIC (Moraxella catarrhalis [13]; read-out: MIC): 32 µg/mL; MIC (Moraxella catarrhalis [14]): > 32 µg/mL; MIC (Bacillus cereus): > 32 µg/mL; MIC (Pseudomonas aeruginosa): > 32 µg/mL; MIC (Klebsiella aerogenes): > 32 µg/mL |
| C[C@H](CO)[C@H]1CC[C@H]2[C@@H]3CC[C@@H]4C[C@@H](NCCCNCCCCN)CC[C@]4(C)[C@H]3CC[C@]12C.Cl.Cl.Cl | 8 µg/mL | 16 µg/mL | 8 µg/mL | 32 µg/mL | > 32 µg/mL | > 32 µg/mL | > 32 µg/mL | > 32 µg/mL | > 32 µg/mL | > 32 µg/mL | > 32 µg/mL | > 32 µg/mL | > 32 µg/mL | > 32 µg/mL | > 32 µg/mL | > 32 µg/mL | > 32 µg/mL | 8 µg/mL | 8 µg/mL | 32 µg/mL | MIC (Staphylococcus aureus [2]; read-out: MIC): 16 µg/mL; MIC (Staphylococcus aureus [4]): > 32 µg/mL; MIC (Enterococcus faecalis; read-out: MIC): < 32 µg/mL; MIC (Escherichia coli [7]; read-out: MIC): < 32 µg/mL; MIC (Escherichia coli [8]): > 32 µg/mL; MIC (Escherichia coli [9]): > 32 µg/mL; MIC (Moraxella catarrhalis [13]): > 32 µg/mL; MIC (Moraxella catarrhalis [14]): > 32 µg/mL; MIC (Bacillus cereus; read-out: MIC): 32 µg/mL; MIC (Pseudomonas aeruginosa): > 32 µg/mL; MIC (Klebsiella aerogenes): > 32 µg/mL |
| C[C@H](CO)[C@H]1CC[C@H]2[C@@H]3CC[C@H]4C[C@H](NCCCNCCCCN)CC[C@]4(C)[C@H]3CC[C@]12C.Cl.Cl.Cl | 4 µg/mL | 8 µg/mL | 4 µg/mL | 16 µg/mL | > 32 µg/mL | > 32 µg/mL | > 32 µg/mL | > 32 µg/mL | > 32 µg/mL | > 32 µg/mL | > 32 µg/mL | > 32 µg/mL | > 32 µg/mL | > 32 µg/mL | > 32 µg/mL | > 32 µg/mL | > 32 µg/mL | 8 µg/mL | 8 µg/mL | 16 µg/mL | MIC (Staphylococcus aureus [2]; read-out: MIC): 16 µg/mL; MIC (Staphylococcus aureus [4]; read-out: MIC): 4 µg/mL; MIC (Enterococcus faecalis; read-out: MIC): 32 µg/mL; MIC (Escherichia coli [7]; read-out: MIC): 32 µg/mL; MIC (Escherichia coli [8]; read-out: MIC): 32 µg/mL; MIC (Escherichia coli [9]): > 32 µg/mL; MIC (Moraxella catarrhalis [13]; read-out: MIC): < 32 µg/mL; MIC (Moraxella catarrhalis [14]): > 32 µg/mL; MIC (Bacillus cereus): > 32 µg/mL; MIC (Pseudomonas aeruginosa): > 32 µg/mL; MIC (Klebsiella aerogenes): > 32 µg/mL |
